We go through 1 compound from article PMC6829886, “Inhibition of Non-Small Cell Lung Cancer Cells by Oxy210, an Oxysterol-Derivative that Antagonizes TGFβ and Hedgehog Signaling” (Cells, 2019).

Data set [1] has as its system Hh signaling (Gli1, Ptch1 mRNA) in NIH3T3-E1 cells. Kind of data set: Ligand-induced Hh target gene expression (Q-RT-PCR) in NIH3T3 cells treated with CAPAN-1 conditioned medium. Type of data set: cell-based. As to the method: Growth medium in confluent […] tissue culture plates of CAPAN-1 cells was replaced with 10 mL of fresh growth medium and cells incubated for a total of 7 days. Conditioned medium (CM) containing Shh and Ihh was collected and spun down to remove any detached cells and debris, aliquoted, and stored frozen at −80 °C (21).
Total RNA was extracted with the RNeasy Plus Mini Kit from Qiagen (Hilden, Germany) according to the manufacturer’s instructions. One microgram of RNA was reverse-transcribed using an iScript Reverse Transcription Supermix from Bio-Rad Laboratories (Hercules, CA, USA) to make single-stranded cDNA. The cDNAs were then mixed with Qi SYBR Green Supermix (Bio-Rad) for quantitative RT-PCR assay using a Bio-Rad I-cycler IQ quantitative thermocycler. All PCR samples were prepared in triplicate wells in a 96-well plate. After 40 cycles of PCR, melt curves were examined in order to ensure primer specificity. Fold changes in gene expression were calculated using the ΔΔCt method. Primers used for mouse were as follows: Oaz1 (5′-CCACTGCTTCGCCAGAGAG-3′) and (5′-CCCGGACCCAGGTTACTA-3′), Gli1 (5′- […]-3′ and 5′- GCT GATCCAGCCTAAGGTTCTC-3′), Ptch1 (5′-CCATCGGCGACAAGAACC-3′ and 5′-[…]-3′), Thbs1 (5′-[…]-3′ and 5′-CGGGGATCAGGTTGGCATT-3′), Cryab (5′-[…]-3′ and 5′-[…]-3′), Egr2 (5′-[…]-3′ and 5′-[…]-3′), CTGF (5′-GGGCCTCTTCTGCGATTTC-3′ and 5′-[…]-3′).
Statistical analyses were performed using the StatView 5 program (SAS Institute, Cary, NC, USA). All p values were calculated using ANOVA and Fisher’s projected least significant difference (PLSD) significance test. A value of p < 0.05 was considered significant. The IC 50 dose-response curves shown in Figure 4b and Figure 7a–c were modeled using a five-parameter logistic model. This model allows for asymmetric curves and automatically estimates the mean maximum and minimum response. Based on this model, IC 50 values were estimated corresponding to the dose halfway between min and max response. Models of dose versus response and dose versus log response were also evaluated (see Supplementary Materials). The R square statistic was computed as a measure of model fit.
Figure 4 Inhibition of ligand-induced Hedgehog and TGFβ signaling in mouse fibroblast cells. NIH3T3 cells were pretreated for 2 h with Oxy210 or various inhibitors as indicated in DMEM containing 5% FBS. […] After 72 h, RNA was extracted and analyzed by Q-RT-PCR for the expression of Hh target genes Gli1 and Ptch1 and normalized to Oaz1 expression (a,b). […] After 48 h, RNA was extracted and analyzed by Q-RT-PCR for the expression of TGFβ target genes as indicated and normalized to Oaz1 expression. […] Luciferase activity was measured and normalized to the Renilla luciferase activity. […]

The nature of data set [2]: Metabolic stability in mouse liver microsomes. Type of data set: in vitro ADME.
The subject of a further data set is Liver X Receptor (LXR). Type of data set: cell-based, human.
Data set [3] can be described thus: Metabolic stability in human liver microsomes. Format: in vitro ADME.
For data set [4], the system named is EGF or Il-1β target gene expression (fibronectin, IL-6) in NIH3T3-E1 or A549 cells. Put plainly: Target gene expression after stimulation with EGF or Il-1β (pathway specificity). Type of data set: cell-based. The text has this: We content that the biological properties of Oxy210 described here are specific inhibitory effects, by and large limited to Hh and TGF β signaling, rather than the result of nonspecific binding events and/or a pan inhibition of cellular signaling.

The term IC90 denotes the point of the concentration-response curve where the effect stands at 90%. As usually defined, the IC50 is the concentration that inhibits the measured activity by half. The amount remaining is the share of the starting amount still present when the sample was taken. Broadly, the half-life is how long it takes for the measured level to halve. Turning to `C[C@]12CC[C@H]3[C@@H](CC=C4C[C@@H](O)CC[C@@]43C)[C@@H]1CC[C@@H]2[C@](C)(O)CCc1cccnc1` [Oxy210, (3S,8S,9S,10R,13S,14S,17S)-17-((R)-2-hydroxy-4-(pyridin-3-yl)butan-2-yl)-10,13-dimethyl-2,3,4,7,8,9,10,11,12,13,14,15,16,17-tetradecahydro-1H-cyclopenta[a]phenanthren-3-ol], in data set [1] (Gli1 mRNA, original scale Y, logistic curve model), the IC10 Estimate, dataset 1 - Fig 4b is 330 nM. Also, in data set [1] (Mus musculus, Gli1 mRNA, original scale Y, logistic curve model, read-out: IC90 Estimate, dataset 1 - Fig 4b), the IC90 is 5500 nM. In addition, the “mRNA expression of ligand-induced Hh target genes Gli1 and Ptch1” value in data set [1] (NIH3T3-E1 cells, CAPAN-1 CM, 72 h) was “robustly inhibited”. In addition, in data set [1] (NIH3T3-E1 cells, CAPAN-1 CM, 72 h, Gli1 mRNA, five-parameter logistic model, ± SE, read-out: IC50 for inhibition of Gli1 expression), the IC50 turned out to be 1830 ± 210 nM. Also, the amount remaining at 1 h was determined as 61% in data set [2] (read-out: MLM, % Remaining after 60 min) and 55% in data set [3] (read-out: HLM, % Remaining after 60 min). For the same compound, the half-life in data set [2] (read-out: MLM, Half-Life) was 1.4 h; in data set [3] (human, liver microsomes, read-out: HLM, Half-Life) it was 1.15 h. Besides, the “induced expression of SREB1c” value with Liver X Receptor (LXR) was “lack of induced expression”. In addition, the “inhibition of EGF or Il-1β target gene expression (fibronectin, IL-6)” value in data set [4] is reported as “did not result in significant inhibition”.
